Measured values as given in patent publication US10272095B2 (GlaxoSmithKline Intellectual Property Development Limited, priority 2015, dated 2019).
pEC50: −log10 of the molar value. Structures can show the parent of a compound that is named as a salt.

These compounds were tested on NQO1 specific enzyme activity in BEAS-2B cells (assay: BEAS-2B NQO1 MTT assay). Settings: Homo sapiens, BEAS-2B, 48 h, NQO1 specific enzyme activity induction in BEAS-2B cells, 48 hours; read-out: EC50.
Type: cell-based
In short: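 BEAS-2B cells exposed to compound 48 h at 37° C, 5% CO2, then lysed. NQO1 activity read kinetically in lysate with MTT cocktail (absorbance 570 nm, 30 min); Cell Titer Glo run on a lysate aliquot. pEC50 from ΔOD/min versus log concentration, 3-parameter fit.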
`Cc1c([C@H](c2ccc3c(c2)[C@H](N2Cc4ccncc4OC(C)(C)C2)CC3)C(C)(C)C(=O)O)ccc2c1nnn2C` (racemic) [Example 70, rac-(R)-3-(1,4-Dimethyl-1H-benzo[d][1,2,3]triazol-5-yl)-3-(rac-(S)-3-(2,2-dimethyl-2,3-dihydropyrido[4,3-f][1,4]oxazepin-4(5H)-yl)-2,3-dihydro-1H-inden-5-yl)-2,2-dimethylpropanoic acid, Trifluoroacetic acid salt] gave a pEC50 of 8.00 to 9.00. With `Cc1c(C(CC(=O)O)c2ccc3c(c2)C2C(CC(=O)N2CC2CCC4CCCCC4C2)C3)ccc2c1nnn2C` (stereo not shown) [Example 4, 3-[1-(Decahydronaphthalen-2-ylmethyl)-2-oxo-1H,2H,3H,3aH,4H,8bH-indeno[1,2-b]pyrrol-7-yl]-3-(1,4-dimethyl-1H-1,2,3-benzotriazol-5-yl)propanoic Acid] the pEC50 was 7.00 to 8.00. `CC[C@@H]1CN([C@@H]2CCc3ccc(C(CC(=O)O)c4ccc5c(nnn5C)c4C)cc32)Cc2ccccc2O1` (relative stereo) [Example 84, rel-(R)-3-(1,4-Dimethyl-1H-benzo[d][1,2,3]triazol-5-yl)-3-(rel-(R)-3-((R)-2-ethyl-2,3-dihydrobenzo[f][1,4]oxazepin-4(5H)-yl)-2,3-dihydro-1H-inden-5-yl)propanoic acid] showed a pEC50 of 5.00 to 6.00. For `CC[C@@H]1CN([C@H]2CCc3ccc([C@H](c4ccc5c(nnn5C)c4C)C(C)(C)C(=O)O)cc32)Cc2cnccc2O1` (relative stereo) [Example 76, rel-(R)-3-(1,4-Dimethyl-1H-benzo[d][1,2,3]triazol-5-yl)-3-(rel-(S)-3-((R)-2-ethyl-2,3-dihydropyrido[3,4-f][1,4]oxazepin-4(5H)-yl)-2,3-dihydro-1H-inden-5-yl)-2,2-dimethylpropanoic acid], the pEC50 was 5.00 to 6.00. In the case of `Cc1c(C(CC(=O)O)c2ccc3c(c2)C(N2Cc4cnccc4OC(C)(C)C2)CC3)ccc2c1nnn2C` (stereo not shown) [Example 48, 3-(1,4-Dimethyl-1H-benzo[d][1,2,3]triazol-5-yl)-3-(3-(2,2-dimethyl-2,3-dihydropyrido[3,4-f][1,4]oxazepin-4(5H)-yl)-2,3-dihydro-1H-inden-5-yl)propanoic Acid, Formic Acid Salt], the pEC50 was 7.00 to 8.00. `Cc1c(C(CC(=O)O)c2ccc3c(c2)C(N2Cc4ccc(C#N)cc4OC(C)(C)C2)CC3)ccc2c1nnn2C` (stereo not shown) [Example 35, 3-(3-(8-Cyano-2,2-dimethyl-2,3-dihydrobenzo[f][1,4]oxazepin-4(5H)-yl)-2,3-dihydro-1H-inden-5-yl)-3-(1,4-dimethyl-1H-benzo[d][1,2,3]triazol-5-yl)propanoic Acid, Formic Acid Salt] gave a pEC50 of 8.00 to 9.00. For `Cc1c(C(CC(=O)O)c2ccc3c(c2)C(N2Cc4ccc(F)cc4OC(C)(C)C2)CC3)ccc2c1nnn2C` (stereo not shown) [Example 25, 3-(1,4-Dimethyl-1H-benzo[d][1,2,3]triazol-5-yl)-3-(3-(8-fluoro-2,2-dimethyl-2,3-dihydrobenzo[f][1,4]oxazepin-4(5H)-yl)-2,3-dihydro-1H-inden-5-yl)propanoic Acid], the pEC50 was 8.00 to 9.00. In the case of `CC[C@@H]1CN(C2CCc3ccc(C(CC(=O)O)c4ccc5c(nnn5C)c4C)cc32)Cc2cnccc2O1` (stereo partly drawn) [Example 57, 3-(1,4-Dimethyl-1H-benzo[d][1,2,3]triazol-5-yl)-3-(3-((R)-2-ethyl-2,3-dihydropyrido[3,4-f][1,4]oxazepin-4(5H)-yl)-2,3-dihydro-1H-inden-5-yl)propanoic Acid, Formic Acid Salt], the pEC50 was 6.00 to 7.00. With `Cc1c(C(CC(=O)O)c2ccc3c(c2)C(N2Cc4cccnc4OC(C)(C)C2)CC3)ccc2c1nnn2C` (stereo not shown) [Example 51] the pEC50 was 7.00 to 8.00.

Same assay, conditions: NQO1 specific enzyme activity induction in BEAS-2B cells, 48 hours; read-out: EC50
Compound `CC[C@@H]1CN([C@H]2CCc3ccc([C@@H](c4ccc5c(nnn5C)c4C)C(C)(C)C(=O)O)cc32)Cc2cnccc2O1` (relative stereo) [Example 72, rel-(S)-3-(1,4-Dimethyl-1H-benzo[d][1,2,3]triazol-5-yl)-3-(rel-(S)-3-((R)-2-ethyl-2,3-dihydropyrido[3,4-f][1,4]oxazepin-4(5H)-yl)-2,3-dihydro-1H-inden-5-yl)-2,2-dimethylpropanoic acid] has a pEC50 of 8.00 to 9.00.
